Experiments:
Experiment in all cases: viability relative to DMSO control (fraction); higher = less drug effect (more viable cells)
Conditions in all cases: 48 h
[1] = system: primary AML patient cells (S089)
How it was run: (§1)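 In 384-well plates with compounds pre-plated at five concentrations (one well per concentration), primary mononuclear tumour cells were plated at 4 × 10^4 cells per well. The cells came from blood or bone marrow by Ficoll isolation or from processed lymph node, and were used fresh or cryopreserved. Culture ran for 48 h at 37 °C and 5% CO2 in RPMI-1640 containing penicillin/streptomycin, L-glutamine and human serum. Viability was read as CellTiter-Glo luminescence, normalised to the median of 16 inner DMSO wells.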

[2] = system: primary AML patient cells (S085)
How it was run: as §1

[3] = system: primary AML patient cells (S037)
How it was run: as §1

[4] = system: primary DLBCL patient cells (S076)
How it was run: as §1

[5] = system: primary AML patient cells (S025)
How it was run: as §1

[6] = system: primary T-NHL patient cells (S058)
How it was run: as §1

[7] = system: primary AML patient cells (S002)
How it was run: as §1

[8] = system: primary AML patient cells (S011)
How it was run: as §1

[9] = system: primary AML patient cells (S091)
How it was run: as §1

[10] = system: primary AML patient cells (S081)
How it was run: as §1

[11] = system: primary AML patient cells (S006)
How it was run: as §1

[12] = system: primary AML patient cells (S021)
How it was run: as §1

[13] = system: primary AML patient cells (S017)
How it was run: as §1

[14] = system: primary DLBCL patient cells (S049)
How it was run: as §1

[15] = system: primary CLL patient cells (S043)
How it was run: as §1

[16] = system: primary AML patient cells (S012)
How it was run: as §1

[17] = system: primary AML patient cells (S019)
How it was run: as §1

SMILES: CC[C@H](Nc1ncnc2[nH]cnc12)c1nc2cccc(F)c2c(=O)n1-c1ccccc1 [Idelalisib]
- viability ([1]; 0.0032 µM): 0.965
- viability ([1]; 0.016 µM): 0.739
- viability ([1]; 0.08 µM): 0.924
- viability ([1]; 0.4 µM): 0.671
- viability ([1]; 2 µM): 0.58
- viability ([2]; 0.0032 µM): 1.04
- viability ([2]; 0.016 µM): 0.844
- viability ([2]; 0.08 µM): 0.788
- viability ([2]; 0.4 µM): 0.82
- viability ([2]; 2 µM): 0.755
- viability ([3]; 0.0032 µM): 0.976
- viability ([3]; 0.016 µM): 1.03
- viability ([3]; 0.08 µM): 1.03
- viability ([3]; 0.4 µM): 1.81
- viability ([3]; 2 µM): 0.983
- viability ([4]; 0.0032 µM): 0.935
- viability ([4]; 0.016 µM): 0.879
- viability ([4]; 0.08 µM): 0.825
- viability ([4]; 0.4 µM): 0.832
- viability ([4]; 2 µM): 0.735
- viability ([5]; 0.0032 µM): 0.92
- viability ([5]; 0.016 µM): 0.935
- viability ([5]; 0.08 µM): 0.959
- viability ([5]; 0.4 µM): 1.14
- viability ([5]; 2 µM): 0.924
- viability ([6]; 0.0032 µM): 0.988
- viability ([6]; 0.016 µM): 0.916
- viability ([6]; 0.08 µM): 0.961
- viability ([6]; 0.4 µM): 1.08
- viability ([6]; 2 µM): 0.985
- viability ([7]; 0.0032 µM): 0.969
- viability ([7]; 0.016 µM): 1.02
- viability ([7]; 0.08 µM): 0.957
- viability ([7]; 0.4 µM): 0.924
- viability ([7]; 2 µM): 0.785
- viability ([8]; 0.0032 µM): 0.968
- viability ([8]; 0.016 µM): 0.873
- viability ([8]; 0.08 µM): 0.924
- viability ([8]; 0.4 µM): 0.88
- viability ([8]; 2 µM): 0.829
- viability ([9]; 0.0032 µM): 0.929
- viability ([9]; 0.016 µM): 0.838
- viability ([9]; 0.08 µM): 0.773
- viability ([9]; 0.4 µM): 0.697
- viability ([9]; 2 µM): 0.558
- viability ([10]; 0.0032 µM): 1.07
- viability ([10]; 0.016 µM): 1.04
- viability ([10]; 0.08 µM): 1.06
- viability ([10]; 0.4 µM): 1.07
- viability ([10]; 2 µM): 1.03
- viability ([11]; 0.0032 µM): 1.02
- viability ([11]; 0.016 µM): 0.97
- viability ([11]; 0.08 µM): 0.943
- viability ([11]; 0.4 µM): 0.885
- viability ([11]; 2 µM): 0.882
- viability ([12]; 0.0032 µM): 1.03
- viability ([12]; 0.016 µM): 0.928
- viability ([12]; 0.08 µM): 0.843
- viability ([12]; 0.4 µM): 0.827
- viability ([12]; 2 µM): 0.741
- viability ([13]; 0.0032 µM): 1.09
- viability ([13]; 0.016 µM): 1.1
- viability ([13]; 0.08 µM): 1.16
- viability ([13]; 0.4 µM): 0.988
- viability ([13]; 2 µM): 0.808
- viability ([14]; 0.0032 µM): 1.02
- viability ([14]; 0.016 µM): 1.02
- viability ([14]; 0.08 µM): 0.968
- viability ([14]; 0.4 µM): 1.02
- viability ([14]; 2 µM): 0.94
- viability ([15]; 0.0032 µM): 0.909
- viability ([15]; 0.016 µM): 0.805
- viability ([15]; 0.08 µM): 0.719
- viability ([15]; 0.4 µM): 0.745
- viability ([15]; 2 µM): 0.691
- viability ([16]; 0.0032 µM): 1.02
- viability ([16]; 0.016 µM): 0.982
- viability ([16]; 0.08 µM): 1.18
- viability ([16]; 0.4 µM): 1.04
- viability ([16]; 2 µM): 1.06
- viability ([17]; 0.0032 µM): 1.02
- viability ([17]; 0.016 µM): 0.936
- viability ([17]; 0.08 µM): 1.01
- viability ([17]; 0.4 µM): 1.13
- viability ([17]; 2 µM): 0.996
